Reference: patent publication US6376426B1, “Herbicidal 3-(heterocycl-1-yl)-uracils” (BASF Aktiengesellschaft, priority 1999, dated 2002)

How the values were obtained:
Format in all cases: in vivo
Galium aparine [1] = assay: Pre-emergence herbicidal test, GALAP; design: key to herbicidal effect (0-9 scale) GALAP / herbicidal rating GALAP: A rating 0 indicates growth as untreated control; a rating 9 indicates death; conditions: PRE, 0-9 scale, 21 days after spraying
Experimental: (§1) To evaluate their herbicidal activity, compounds according to the invention are tested using a representative range of plants:
(§2) The pre-emergence tests involve spraying a liquid formulation of the compound onto the soil in which the seeds of the plant species mentioned above has recently been sown.
(§3) The soil used in the tests is a prepared horticultural loam. The formulations used in the tests are prepared from solutions of the test compounds in acetone containing 0.4% by weight of an alkylphenol/ethylene oxide condensate available under the trade mark TRITON X-155. […] In these tests untreated sown soil are used as controls.
(§4) The herbicidal effects of the test compounds are assessed visually twenty-one days after spraying the foliage and the soil and are recorded on a 0-9 scale. A rating 0 indicates growth as untreated control, a rating 9 indicates death. An increase of 1 unit on the linear scale approximates to a 10% increase in the level of effect.

Echinochloa crus-galli [2] = assay: Post-emergence herbicidal test, ECHCG; design: key: A rating 0 indicates growth as untreated control; a rating 9 indicates death; conditions: 0-9 scale, 21 days after spraying
Experimental: as §1
(§5) […] After spraying, the plants are placed on greenhouse benches and are cared for in the usual manner, commensurate with conventional greenhouse practices.
as §4

[3] = tested on: representative range of plants; assay: Pre-emergence herbicidal test, summary over the plants tested; conditions: 100 g/ha
Experimental: as §1, §2, §3, §4

Galium aparine [4] = assay: Post-emergence herbicidal test, GALAP; design: key to herbicidal effect (0-9 scale) GALAP / herbicidal rating GALAP: A rating 0 indicates growth as untreated control; a rating 9 indicates death; conditions: POST, 0-9 scale, 21 days after spraying
Experimental: as §1, §5, §4

Zea mays [5] = assay: Post-emergence herbicidal test, ZEAMX; design: key: A rating 0 indicates growth as untreated control; a rating 9 indicates death; conditions: 0-9 scale, 21 days after spraying
Experimental: as §1, §5, §4

[6] = tested on: representative range of plants; assay: Herbicidal activity, pre- and post-emergence, overall; conditions: both in pre- and post-emergence
Experimental: as §1, §2
The soil used in the tests is a prepared horticultural loam. The formulations used in the tests are prepared from solutions of the test compounds in acetone containing 0.4% by weight of an alkylphenol/ethylene oxide condensate available under the trade mark TRITON X-155. These acetone solutions are diluted with water and the resulting formulations applied at dosage levels corresponding to 1000 g and 250 g/ha of active material per hectare in a volume equivalent to 900 litres per hectare. In these tests untreated sown soil are used as controls.
These acetone solutions are diluted with water and the resulting formulations applied at dosage levels equivalent to about 1000, 800, 400, 250 or 100 g/ha per hectare of test compound per pot. After spraying, the plants are placed on greenhouse benches and are cared for in the usual manner, commensurate with conventional greenhouse practices.
as §4

Glycine max [7] = assay: Post-emergence herbicidal test, GLXMA; design: key: A rating 0 indicates growth as untreated control; a rating 9 indicates death; conditions: 0-9 scale, 21 days after spraying
Experimental: as §1, §5, §4

[8] = tested on: representative range of plants; assay: Post-emergence herbicidal test, summary over the plants tested
Experimental: as §1, §5, §4

Glycine max [9] = assay: Pre-emergence herbicidal test, GLXMA; design: key to herbicidal effect (0-9 scale) GLXMA / herbicidal rating GLXMA: A rating 0 indicates growth as untreated control; a rating 9 indicates death; conditions: for herbicidal rating GLXMA: PRE, 0-9 scale, 21 days after spraying
Experimental: as §1, §2, §3, §4

Abutilon theophrasti [10] = assay: Post-emergence herbicidal test, ABUTH; design: key to herbicidal effect (0-9 scale) ABUTH / herbicidal rating ABUTH: A rating 0 indicates growth as untreated control; a rating 9 indicates death; conditions: POST, 0-9 scale, 21 days after spraying
Experimental: as §1, §5, §4

Ipomoea hederacea [11] = assay: Pre-emergence herbicidal test, IPOHE; design: key: A rating 0 indicates growth as untreated control; a rating 9 indicates death; conditions: 0-9 scale, 21 days after spraying
Experimental: as §1, §2, §3, §4

Matricaria inodora [12] = assay: Pre-emergence herbicidal test, MATIN; design: key to herbicidal effect (0-9 scale) MATIN / herbicidal rating MATIN: A rating 0 indicates growth as untreated control; a rating 9 indicates death; conditions: PRE, 0-9 scale, 21 days after spraying
Experimental: as §1, §2, §3, §4

Abutilon theophrasti [13] = assay: Pre-emergence herbicidal test, ABUTH; design: key to herbicidal effect (0-9 scale) ABUTH / herbicidal rating ABUTH: A rating 0 indicates growth as untreated control; a rating 9 indicates death; conditions: PRE, 0-9 scale, 21 days after spraying
Experimental: as §1, §2, §3, §4

Ipomoea hederacea [14] = assay: Post-emergence herbicidal test, IPOHE; design: key to herbicidal effect (0-9 scale) IPOHE / herbicidal rating IPOHE: A rating 0 indicates growth as untreated control; a rating 9 indicates death; conditions: POST, 0-9 scale, 21 days after spraying
Experimental: as §1, §5, §4

Echinochloa crus-galli [15] = assay: Pre-emergence herbicidal test, ECHCG; design: key: A rating 0 indicates growth as untreated control; a rating 9 indicates death; conditions: 0-9 scale, 21 days after spraying
Experimental: as §1, §2, §3, §4

Matricaria inodora [16] = assay: Post-emergence herbicidal test, MATIN; design: key to herbicidal effect (0-9 scale) MATIN / herbicidal rating MATIN: A rating 0 indicates growth as untreated control; a rating 9 indicates death; conditions: POST, 0-9 scale, 21 days after spraying
Experimental: as §1, §5, §4

Setaria viridis [17] = assay: Pre-emergence herbicidal test, SETVI; design: key to herbicidal effect (0-9 scale) SETVI / herbicidal rating SETVI: A rating 0 indicates growth as untreated control; a rating 9 indicates death; conditions: PRE, 0-9 scale, 21 days after spraying
Experimental: as §1, §2, §3, §4

Zea mays [18] = assay: Pre-emergence herbicidal test, ZEAMX; design: key to herbicidal effect (0-9 scale) ZEAMX / herbicidal rating ZEAMX: A rating 0 indicates growth as untreated control; a rating 9 indicates death; conditions: for herbicidal rating ZEAMX: PRE, 0-9 scale, 21 days after spraying
Experimental: as §1, §2, §3, §4

Alopecurus myosuroides [19] = assay: Post-emergence herbicidal test, ALOMY; design: key: A rating 0 indicates growth as untreated control; a rating 9 indicates death; conditions: 0-9 scale, 21 days after spraying
Experimental: as §1, §5, §4

Stellaria media [20] = assay: Post-emergence herbicidal test, STEME; design: key to herbicidal effect (0-9 scale) STEME / herbicidal rating STEME: A rating 0 indicates growth as untreated control; a rating 9 indicates death; conditions: POST, 0-9 scale, 21 days after spraying
Experimental: as §1, §5, §4

Alopecurus myosuroides [21] = assay: Pre-emergence herbicidal test, ALOMY; design: key to herbicidal effect (0-9 scale) ALOMY / herbicidal rating ALOMY: A rating 0 indicates growth as untreated control; a rating 9 indicates death; conditions: for herbicidal rating ALOMY: PRE, 0-9 scale, 21 days after spraying
Experimental: as §1, §2, §3, §4

Stellaria media [22] = assay: Pre-emergence herbicidal test, STEME; design: key to herbicidal effect (0-9 scale) STEME / herbicidal rating STEME: A rating 0 indicates growth as untreated control; a rating 9 indicates death; conditions: PRE, 0-9 scale, 21 days after spraying
Experimental: as §1, §2, §3, §4

Setaria viridis [23] = assay: Post-emergence herbicidal test, SETVI; design: key to herbicidal effect (0-9 scale) SETVI / herbicidal rating SETVI: A rating 0 indicates growth as untreated control; a rating 9 indicates death; conditions: POST, 0-9 scale, 21 days after spraying
Experimental: as §1, §5, §4

SMILES: Cn1c(C(F)(F)F)cc(=O)n(-n2ncc3c(Cl)cccc32)c1=O [Example 168, 3-(4-Chloro-1-indazol-1-yl)-1-methyl-6trifluoromethylpyrimidine-2,4-dione]
- herbicidal rating GALAP (Galium aparine [1]; 12.5 g/ha): 3
- herbicidal rating GALAP (Galium aparine [1]; 25 g/ha): 6
- herbicidal rating GALAP (Galium aparine [1]; 100 g/ha): 9
- herbicidal rating ECHCG (Echinochloa crus-galli [2]; 12.5 g/ha): 0
- herbicidal rating ECHCG (Echinochloa crus-galli [2]; 25 g/ha): 2
- herbicidal rating ECHCG (Echinochloa crus-galli [2]; 100 g/ha): 8
- control of the weeds [3]: four out of five broadleaf weeds were well controlled
- herbicidal rating GALAP (Galium aparine [4]; 12.5 g/ha): 9
- herbicidal rating GALAP (Galium aparine [4]; 25 g/ha): 9
- herbicidal rating GALAP (Galium aparine [4]; 100 g/ha): 9
- herbicidal rating ZEAMX (Zea mays [5]; 12.5 g/ha): 0
- herbicidal rating ZEAMX (Zea mays [5]; 25 g/ha): 1
- herbicidal rating ZEAMX (Zea mays [5]; 100 g/ha): 3
- herbicidal performance [6]: good performance
- herbicidal rating GLXMA (Glycine max [7]; 12.5 g/ha): 5
- herbicidal rating GLXMA (Glycine max [7]; 25 g/ha): 6
- herbicidal rating GLXMA (Glycine max [7]; 100 g/ha): 9
- control of broadleaf weeds ([8]; 12.5 g/ha): all broadleaf weeds were still well controlled
- control of the weeds ([8]; 100 g/ha): good cross spectrum control on both broadleaf weeds and grasses except Alopecurus and Echinochloa
- herbicidal rating GLXMA (Glycine max [9]; 12.5 g/ha): 0
- herbicidal rating GLXMA (Glycine max [9]; 25 g/ha): 0
- herbicidal rating GLXMA (Glycine max [9]; 100 g/ha): 0
- selectivity in soy beans (Glycine max [9]; pre-emergence, 100 g/ha): Surprisingly good selectivity
- herbicidal rating ABUTH (Abutilon theophrasti [10]; 12.5 g/ha): 9
- herbicidal rating ABUTH (Abutilon theophrasti [10]; 25 g/ha): 9
- herbicidal rating ABUTH (Abutilon theophrasti [10]; 100 g/ha): 9
- herbicidal rating IPOHE (Ipomoea hederacea [11]; 12.5 g/ha): 0
- herbicidal rating IPOHE (Ipomoea hederacea [11]; 25 g/ha): 3
- herbicidal rating IPOHE (Ipomoea hederacea [11]; 100 g/ha): 7
- herbicidal rating MATIN (Matricaria inodora [12]; 12.5 g/ha): 8
- herbicidal rating MATIN (Matricaria inodora [12]; 25 g/ha): 8
- herbicidal rating MATIN (Matricaria inodora [12]; 100 g/ha): 9
- herbicidal rating ABUTH (Abutilon theophrasti [13]; 12.5 g/ha): 9
- herbicidal rating ABUTH (Abutilon theophrasti [13]; 25 g/ha): 9
- herbicidal rating ABUTH (Abutilon theophrasti [13]; 100 g/ha): 9
- herbicidal rating IPOHE (Ipomoea hederacea [14]; 12.5 g/ha): 9
- herbicidal rating IPOHE (Ipomoea hederacea [14]; 25 g/ha): 9
- herbicidal rating IPOHE (Ipomoea hederacea [14]; 100 g/ha): 9
- herbicidal rating ECHCG (Echinochloa crus-galli [15]; 12.5 g/ha): 0
- herbicidal rating ECHCG (Echinochloa crus-galli [15]; 25 g/ha): 1
- herbicidal rating ECHCG (Echinochloa crus-galli [15]; 100 g/ha): 6
- herbicidal rating MATIN (Matricaria inodora [16]; 12.5 g/ha): 8
- herbicidal rating MATIN (Matricaria inodora [16]; 25 g/ha): 9
- herbicidal rating MATIN (Matricaria inodora [16]; 100 g/ha): 9
- herbicidal rating SETVI (Setaria viridis [17]; 12.5 g/ha): 2
- herbicidal rating SETVI (Setaria viridis [17]; 25 g/ha): 5
- herbicidal rating SETVI (Setaria viridis [17]; 100 g/ha): 9
- herbicidal rating ZEAMX (Zea mays [18]; 12.5 g/ha): 0
- herbicidal rating ZEAMX (Zea mays [18]; 25 g/ha): 0
- herbicidal rating ZEAMX (Zea mays [18]; 100 g/ha): 1
- selectivity in maize (Zea mays [18]; pre-emergence, 100 g/ha): Surprisingly good selectivity
- herbicidal rating ALOMY (Alopecurus myosuroides [19]; 12.5 g/ha): 0
- herbicidal rating ALOMY (Alopecurus myosuroides [19]; 25 g/ha): 1
- herbicidal rating ALOMY (Alopecurus myosuroides [19]; 100 g/ha): 3
- herbicidal rating STEME (Stellaria media [20]; 12.5 g/ha): 7
- herbicidal rating STEME (Stellaria media [20]; 25 g/ha): 7
- herbicidal rating STEME (Stellaria media [20]; 100 g/ha): 9
- herbicidal rating ALOMY (Alopecurus myosuroides [21]; 12.5 g/ha): 0
- herbicidal rating ALOMY (Alopecurus myosuroides [21]; 25 g/ha): 0
- herbicidal rating ALOMY (Alopecurus myosuroides [21]; 100 g/ha): 2
- control of Alopecurus (Alopecurus myosuroides [21]; pre-emergence, 100 g/ha): well controlled
- herbicidal rating STEME (Stellaria media [22]; 12.5 g/ha): 1
- herbicidal rating STEME (Stellaria media [22]; 25 g/ha): 3
- herbicidal rating STEME (Stellaria media [22]; 100 g/ha): 9
- herbicidal rating SETVI (Setaria viridis [23]; 12.5 g/ha): 6
- herbicidal rating SETVI (Setaria viridis [23]; 25 g/ha): 7
- herbicidal rating SETVI (Setaria viridis [23]; 100 g/ha): 9
